For assay [1], the target named is T1, Protein cereblon/Cyclin-K/Cyclin-dependent kinase 12 (Homo sapiens, UniProt O75909+Q9NYV4+Q96SW2). In words: Protac activity at human CRBN/CDK12/CycK in human Bel-7402 cells assessed as downregulation of Mcl-1 level upto 30 uM measured after 24 hrs by Western blotting assay. The format is cell-based. The settings on record: dose microM <=30, time 24.0 hrs.
Target sequence in this assay (O75909 whole entry, looked up): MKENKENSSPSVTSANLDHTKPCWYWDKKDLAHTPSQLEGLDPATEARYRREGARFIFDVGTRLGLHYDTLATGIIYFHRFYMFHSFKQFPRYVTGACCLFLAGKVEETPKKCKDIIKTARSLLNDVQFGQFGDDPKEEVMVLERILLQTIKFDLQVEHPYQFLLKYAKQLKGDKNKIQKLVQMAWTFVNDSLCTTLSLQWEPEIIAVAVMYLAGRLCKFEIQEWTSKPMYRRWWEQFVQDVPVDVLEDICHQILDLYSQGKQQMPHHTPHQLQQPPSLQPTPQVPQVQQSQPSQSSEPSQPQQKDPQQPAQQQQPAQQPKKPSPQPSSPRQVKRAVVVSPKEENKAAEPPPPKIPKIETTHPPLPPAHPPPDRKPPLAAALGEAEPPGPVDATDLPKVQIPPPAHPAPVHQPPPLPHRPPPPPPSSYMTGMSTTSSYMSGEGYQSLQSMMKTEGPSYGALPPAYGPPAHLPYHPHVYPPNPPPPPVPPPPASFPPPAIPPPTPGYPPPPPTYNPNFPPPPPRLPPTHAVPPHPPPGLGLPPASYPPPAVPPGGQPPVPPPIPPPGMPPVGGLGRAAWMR
Target sequence in this assay (Q96SW2 whole entry, looked up): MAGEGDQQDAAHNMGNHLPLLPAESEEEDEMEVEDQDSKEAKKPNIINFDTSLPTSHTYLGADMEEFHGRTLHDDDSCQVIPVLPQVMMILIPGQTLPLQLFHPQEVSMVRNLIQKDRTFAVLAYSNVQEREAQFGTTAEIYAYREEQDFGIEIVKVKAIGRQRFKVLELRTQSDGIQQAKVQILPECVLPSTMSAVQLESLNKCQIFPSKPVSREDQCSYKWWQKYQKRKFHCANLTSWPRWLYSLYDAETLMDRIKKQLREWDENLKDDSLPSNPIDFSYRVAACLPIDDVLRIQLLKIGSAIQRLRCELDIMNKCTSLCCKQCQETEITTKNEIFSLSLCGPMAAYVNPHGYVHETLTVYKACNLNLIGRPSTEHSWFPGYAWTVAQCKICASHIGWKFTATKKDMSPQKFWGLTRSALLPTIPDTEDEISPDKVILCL
Target sequence in this assay (Q9NYV4 whole entry, looked up): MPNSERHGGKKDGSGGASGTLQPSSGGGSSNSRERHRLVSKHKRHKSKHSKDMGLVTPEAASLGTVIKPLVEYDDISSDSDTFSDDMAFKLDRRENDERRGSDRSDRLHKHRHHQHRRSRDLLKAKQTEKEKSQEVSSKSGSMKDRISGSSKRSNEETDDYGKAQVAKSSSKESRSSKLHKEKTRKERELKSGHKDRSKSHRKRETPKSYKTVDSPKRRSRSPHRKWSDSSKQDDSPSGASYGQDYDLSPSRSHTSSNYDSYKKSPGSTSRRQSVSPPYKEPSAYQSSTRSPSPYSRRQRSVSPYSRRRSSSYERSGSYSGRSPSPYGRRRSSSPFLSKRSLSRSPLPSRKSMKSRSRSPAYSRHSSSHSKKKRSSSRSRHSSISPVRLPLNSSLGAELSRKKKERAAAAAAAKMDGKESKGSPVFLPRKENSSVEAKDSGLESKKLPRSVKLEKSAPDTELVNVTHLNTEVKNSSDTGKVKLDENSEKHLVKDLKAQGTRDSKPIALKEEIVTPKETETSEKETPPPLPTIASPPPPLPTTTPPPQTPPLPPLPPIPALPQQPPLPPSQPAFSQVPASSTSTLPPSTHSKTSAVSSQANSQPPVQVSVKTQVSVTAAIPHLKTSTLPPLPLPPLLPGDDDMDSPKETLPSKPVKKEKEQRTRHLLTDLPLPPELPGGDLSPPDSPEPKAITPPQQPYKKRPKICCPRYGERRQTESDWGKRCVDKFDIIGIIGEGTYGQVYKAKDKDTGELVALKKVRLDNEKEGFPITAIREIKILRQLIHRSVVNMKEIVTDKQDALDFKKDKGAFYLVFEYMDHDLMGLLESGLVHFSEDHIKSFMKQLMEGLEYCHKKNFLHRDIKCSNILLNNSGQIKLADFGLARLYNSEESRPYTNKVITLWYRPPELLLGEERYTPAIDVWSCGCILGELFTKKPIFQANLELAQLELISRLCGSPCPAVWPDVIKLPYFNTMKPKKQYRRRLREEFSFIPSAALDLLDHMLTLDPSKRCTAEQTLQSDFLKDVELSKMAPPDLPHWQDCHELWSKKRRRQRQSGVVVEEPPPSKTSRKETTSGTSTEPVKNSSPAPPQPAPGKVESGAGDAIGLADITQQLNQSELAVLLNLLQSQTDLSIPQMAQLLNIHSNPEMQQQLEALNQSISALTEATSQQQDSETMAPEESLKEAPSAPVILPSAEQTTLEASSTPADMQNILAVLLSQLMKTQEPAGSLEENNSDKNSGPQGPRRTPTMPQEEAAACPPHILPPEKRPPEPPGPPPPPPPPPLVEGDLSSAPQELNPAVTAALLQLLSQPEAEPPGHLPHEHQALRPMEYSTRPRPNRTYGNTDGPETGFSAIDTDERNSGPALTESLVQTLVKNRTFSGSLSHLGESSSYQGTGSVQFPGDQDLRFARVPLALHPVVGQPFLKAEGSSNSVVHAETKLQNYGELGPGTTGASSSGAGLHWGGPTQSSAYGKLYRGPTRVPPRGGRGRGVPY
Assay [2] deals with T1, Protein cereblon/Cyclin-K/Cyclin-dependent kinase 12. Nature of the assay: Protac activity at human CRBN/CDK12/CycK in human MDA-MB-231 cells assessed as downregulation of ATM measured after 6 hrs by RT-qPCR method. It counts as cell-based. In general terms: Quantitative PCR measures a nucleic acid by following its amplification.
Target sequence in this assay (O75909 whole entry, looked up): as the sequence (O75909 whole entry, looked up) above
Target sequence in this assay (Q96SW2 whole entry, looked up): as the sequence (Q96SW2 whole entry, looked up) above
Target sequence in this assay (Q9NYV4 whole entry, looked up): as the sequence (Q9NYV4 whole entry, looked up) above
The target is the same in assay [3]. In words: Protac activity at human CRBN/CDK12/CycK in human MDA-MB-231 cells assessed as CycK mRNA expression measured after 6 hrs by RT-qPCR method. The format is cell-based.
Target sequence in this assay (O75909 whole entry, looked up): as the sequence (O75909 whole entry, looked up) above
Target sequence in this assay (Q96SW2 whole entry, looked up): as the sequence (Q96SW2 whole entry, looked up) above
Target sequence in this assay (Q9NYV4 whole entry, looked up): as the sequence (Q9NYV4 whole entry, looked up) above
Assay [4] shares this target. Nature of the assay: Protac activity at human CRBN/CDK12/CycK in human MDA-MB-231 cells assessed as degradation of CDK12 at 1 to 3 uM for 24 hrs in presence of MG132 by Western blotting assay. It counts as cell-based. Particulars: dose 1-3 µM. In general terms: Immunoblotting shows a protein as a band on a membrane.
Target sequence in this assay (O75909 whole entry, looked up): as the sequence (O75909 whole entry, looked up) above
Target sequence in this assay (Q96SW2 whole entry, looked up): as the sequence (Q96SW2 whole entry, looked up) above
Target sequence in this assay (Q9NYV4 whole entry, looked up): as the sequence (Q9NYV4 whole entry, looked up) above
For assay [5] the target is unchanged. In words: Protac activity at human CRBN/CDK12/CycK in human Bel-7402 cells assessed as degradation of CDK9 upto 30 uM measured after 24 hrs by Western blotting assay. It counts as cell-based. The settings on record: dose microM <=30, time 24.0 hrs.
Target sequence in this assay (O75909 whole entry, looked up): as the sequence (O75909 whole entry, looked up) above
Target sequence in this assay (Q96SW2 whole entry, looked up): as the sequence (Q96SW2 whole entry, looked up) above
Target sequence in this assay (Q9NYV4 whole entry, looked up): as the sequence (Q9NYV4 whole entry, looked up) above
Assay [6] has the same target. In words: Protac activity at human CRBN/CDK12/CycK in human Bel-7402 cells assessed as degradation of CDK12 measured after 24 hrs by Western blotting assay. It counts as cell-based.
Target sequence in this assay (O75909 whole entry): as the sequence (O75909 whole entry, looked up) above
Target sequence in this assay (Q9NYV4 whole entry): as the sequence (Q9NYV4 whole entry, looked up) above
Target sequence in this assay (Q96SW2 whole entry): as the sequence (Q96SW2 whole entry, looked up) above
The target is the same in assay [7]. Nature of the assay: Protac activity at human CRBN/CDK12/CycK in human MDA-MB-231 cells assessed as degradation of CDK9 up to 30 uM measured after 24 hrs by Western blotting assay. The format is cell-based. The settings on record: dose microM <=30, time 24.0 hrs.
Target sequence in this assay (O75909 whole entry, looked up): as the sequence (O75909 whole entry, looked up) above
Target sequence in this assay (Q96SW2 whole entry, looked up): as the sequence (Q96SW2 whole entry, looked up) above
Target sequence in this assay (Q9NYV4 whole entry, looked up): as the sequence (Q9NYV4 whole entry, looked up) above
In assay [8] the test system is MDA-MB-231. Nature of the assay: Antiproliferative activity against human MDA-MB-231 cells at 3 uM for 10 days by SRB staining based clone formation assay relative to control. The format is functional. Particulars: MDA-MB-231, 240 h, time 10 day. (Sulforhodamine B stains cellular protein and so reports cell mass.)
Assay [9] addresses T1, Protein cereblon/Cyclin-K/Cyclin-dependent kinase 12. Nature of the assay: Protac activity at human CRBN/CDK12/CycK in human MDA-MB-231 cells assessed as degradation of CycK measured after 24 hrs by Western blotting assay. It counts as cell-based.
Target sequence in this assay (O75909 whole entry): as the sequence (O75909 whole entry, looked up) above
Target sequence in this assay (Q9NYV4 whole entry): as the sequence (Q9NYV4 whole entry, looked up) above
Target sequence in this assay (Q96SW2 whole entry): as the sequence (Q96SW2 whole entry, looked up) above
Assay [10] shares this target. Nature of the assay: Protac activity at human CRBN/CDK12/CycK in human MDA-MB-231 cells assessed as degradation of Cyclin T1 up to 30 uM measured after 24 hrs by Western blotting assay. The format is cell-based. Particulars: dose microM <=30, time 24.0 hrs.
Assay [11] has the same target. In words: Protac activity at human CRBN/CDK12/CycK in human MDA-MB-231 cells assessed as downregulation of ATR measured after 6 hrs by RT-qPCR method. It counts as cell-based.
Assay [12] shares this target. Nature of the assay: Protac activity at human CRBN/CDK12/CycK in human MDA-MB-231 cells assessed as degradation of CDK12 at 3 uM measured after 24 hrs by Western blotting assay. The format is cell-based.
Assay [13] shares this target. Nature of the assay: Protac activity at human CRBN/CDK12/CycK in human Bel-7402 cells assessed as degradation of CycK measured after 24 hrs by Western blotting assay. The format is cell-based.
Target sequence in this assay (O75909 whole entry): as the sequence (O75909 whole entry, looked up) above
Target sequence in this assay (Q9NYV4 whole entry): as the sequence (Q9NYV4 whole entry, looked up) above
Target sequence in this assay (Q96SW2 whole entry): as the sequence (Q96SW2 whole entry, looked up) above
For assay [14] the target is unchanged. Nature of the assay: Protac activity at human CRBN/CDK12/CycK in human Bel-7402 cells assessed as degradation of Cyclin H upto 30 uM measured after 24 hrs by Western blotting assay. It counts as cell-based. The settings on record: dose microM <=30, time 24.0 hrs.
Assay [15] has the same target. Nature of the assay: Protac activity at human CRBN/CDK12/CycK in human Bel-7402 cells assessed as degradation of CycK at 1 to 3 uM for 24 hrs in presence of MG132 by Western blotting assay. It counts as cell-based. The settings on record: dose 1-3 µM.
For assay [16] the target is unchanged. Nature of the assay: Protac activity at human CRBN/CDK12/CycK in human Bel-7402 cells assessed as downregulation of ATM measured after 6 hrs by RT-qPCR method. The format is cell-based.
Assay [17] shares this target. In words: Protac activity at human CRBN/CDK12/CycK in human Bel-7402 cells assessed as degradation of CDK7 up to 30 uM measured after 24 hrs by Western blotting assay. The settings on record: dose microM <=30, time 24.0 hrs. The format is cell-based.
For assay [18] the target is unchanged. In words: Protac activity at human CRBN/CDK12/CycK in human MDA-MB-231 cells assessed as degradation of CycK a 1 to 3 uM for 24 hrs in presence of MG132 by Western blotting assay. The format is cell-based. Particulars: dose 1-3 µM.

Active and inactive are the calls of the source. The calls are words filed in the database; no cut-off is given here.

Regarding `CC(C)n1cnc2c(NCc3nc4cc(F)c(NCCCCCCCCNC(=O)COc5cccc6c5C(=O)N(C5CCC(=O)NC5=O)C6=O)cc4[nH]3)nc(N3CCOCC3)nc21` (stereo not drawn), the outcome in assay [1], in assay [3], in assay [4], in assay [5], in assay [7] and in [10] was inactive. For the same compound, the result in assay [14], in assay [15], in [17] and in [18] was inactive. The result in assay [2], in assay [11], in assay [12] and in [16] was Active. For the same compound, the results for the DC50 in assay [6], in assay [9] and in assay [13] were 0.416 µM, 0.412 µM and 0.412 µM, respectively. Besides, in assay [8], 3 µM produced 6.47% inhibition.

The values above are taken from ChEMBL document CHEMBL5042492, “Noncovalent CDK12/13 dual inhibitors-based PROTACs degrade CDK12-Cyclin K complex and induce synthetic lethality with PARP inhibitor” (Eur J Med Chem, 2022).
